The numbers were not newly measured in patent US6245768A, “1-(N'-(arylalkylaminoalkyl)) aminoisoindoles; a new class of dopamine receptor subtype specific ligands” (Neurogen Corporation, priority 1999, dated 2001), which cites them from elsewhere.

The structures appear in SMILES notation. Where two headings read alike, the source gives them in different places.

One data set relates to D2 receptors. To be noted: related art.
A further data set deals with D1 dopamine receptor. To be noted: related art.

Consider `CN1CCN(C2=Nc3cc(Cl)ccc3Nc3ccccc32)CC1` [clozapine], for which the “incidence of extrapyramidal side effects (EPS)” value (compared with classical neuroleptics, related art) is reported as “lesser incidence of extrapyramidal side effects (EPS) than classical neuroleptics”.

Take `CCN1CCCC1CNC(=O)c1cc(S(N)(=O)=O)ccc1OC` (stereo not shown) [sulpiride]: the “incidence of extrapyramidal side effects (EPS)” value (in vivo) is reported as “lesser incidence of extrapyramidal side effects (EPS) than classical neuroleptics”.

Consider `O=C(CCCN1CCC(O)(c2ccc(Cl)cc2)CC1)c1ccc(F)cc1` [haloperidol], for which the “binding affinity at D2 receptors” value in the data set with D2 receptors was “subnanomolar range”. Besides, in the data set on D1 dopamine receptor, the “binding at the D1 dopamine receptor” value is reported as “binds relatively weakly”.
